Tested on: 233499-124-R-J3-PDC spheroids with HUVEC/MSC, viability
Experiment: Anticancer human tumor 233499-124-R-J3-PDC patient-derived colon adenocarcinoma cell line growth inhibition [PI3K]
Details: for IC50: curve of first compound; for viability, T/C: stronger effect = lower value
Outline: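 Combination activity was assessed by viability in multicellular tumor spheroids carrying HUVEC and MSC components. Agents were tested with PI3K inhibitors from a Cmax-based top dose (or 10 microM) downward in half-log increments.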

[1] = second compound 0.0316 µM, first compound 0.0316 µM
[2] = second compound 0.0316 µM, first compound 0.1 µM
[3] = second compound 0.0316 µM, first compound 0.316 µM
[4] = second compound 0.0316 µM, first compound 1 µM
[5] = second compound 0.0316 µM, first compound 3.16 µM
[6] = second compound 0.0316 µM, first compound 10 µM
[7] = second compound 0.1 µM, first compound 0.0316 µM
[8] = second compound 0.1 µM, first compound 0.1 µM
[9] = second compound 0.1 µM, first compound 0.316 µM
[10] = second compound 0.1 µM, first compound 1 µM
[11] = second compound 0.1 µM, first compound 3.16 µM
[12] = second compound 0.1 µM, first compound 10 µM
[13] = second compound 0.316 µM, first compound 0.0316 µM
[14] = second compound 0.316 µM, first compound 0.1 µM
[15] = second compound 0.316 µM, first compound 0.316 µM
[16] = second compound 0.316 µM, first compound 1 µM
[17] = second compound 0.316 µM, first compound 3.16 µM
[18] = second compound 0.316 µM, first compound 10 µM
[19] = second compound 1 µM, first compound 0.0316 µM
[20] = second compound 1 µM, first compound 0.1 µM
[21] = second compound 1 µM, first compound 0.316 µM
[22] = second compound 1 µM, first compound 1 µM
[23] = second compound 1 µM, first compound 3.16 µM
[24] = second compound 1 µM, first compound 10 µM
[25] = second compound 3.16 µM, first compound 0.0316 µM
[26] = second compound 3.16 µM, first compound 0.1 µM
[27] = second compound 3.16 µM, first compound 0.316 µM
[28] = second compound 3.16 µM, first compound 1 µM
[29] = second compound 3.16 µM, first compound 3.16 µM
[30] = second compound 3.16 µM, first compound 10 µM
[31] = second compound 10 µM, first compound 0.0316 µM
[32] = second compound 10 µM, first compound 0.1 µM
[33] = second compound 10 µM, first compound 0.316 µM
[34] = second compound 10 µM, first compound 1 µM
[35] = second compound 10 µM, first compound 3.16 µM
[36] = second compound 10 µM, first compound 10 µM
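Note: spheroids exposed to agents for seven days before readout.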
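Throughout, for viability, T/C: percent viability relative to DMSO vehicle control taken as 100%.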

Work on `CC1(C)CCC(CN2CCN(c3ccc(C(=O)NS(=O)(=O)c4ccc(NCC5CCOCC5)c([N+](=O)[O-])c4)c(Oc4cnc5[nH]ccc5c4)c3)CC2)=C(c2ccc(Cl)cc2)C1` + CC(Nc1ncnc2nc[nH]c12)c1cc2cccc(Cl)c2c(=O)n1-c1ccccc1 yielded an IC50 (second compound 0.0316 µM) of 5.69 µM, an IC50 (second compound 0.1 µM) of 5.6 µM and an IC50 (second compound 0.316 µM) of 5.61 µM. It also gave an IC50 (second compound 1 µM) of 5.39 µM, an IC50 (second compound 3.16 µM) of 4.74 µM and an IC50 (second compound 10 µM) of 5.45 µM. For the same compound, the viability, T/C [1] was 87.4%, the viability, T/C [2] was 101% and the viability, T/C [3] was 95.4%. It also gave a viability, T/C [4] of 96.6%, a viability, T/C [5] of 96.2% and a viability, T/C [6] of 6.26%. For the same compound, the viability, T/C [7] was 89.9%, the viability, T/C [8] was 98.7% and the viability, T/C [9] was 87.5%. For the same compound, the viability, T/C [10] was 99.6%, the viability, T/C [11] was 106% and the viability, T/C [12] was 2.9%. The viability, T/C [13] was 116%, the viability, T/C [14] was 92.6% and the viability, T/C [15] was 89.8%. It also gave a viability, T/C [16] of 95.4%, a viability, T/C [17] of 96.7% and a viability, T/C [18] of 2.85%. The viability, T/C [19] was 96.5%, the viability, T/C [20] was 83.6% and the viability, T/C [21] was 103%. It also gave a viability, T/C [22] of 90.3%, a viability, T/C [23] of 91.2% and a viability, T/C [24] of 2.36%. It also gave a viability, T/C [25] of 81.8%, a viability, T/C [26] of 84.7% and a viability, T/C [27] of 98.8%. The viability, T/C [28] was 97.1%, the viability, T/C [29] was 76% and the viability, T/C [30] was 2.35%. The viability, T/C [31] was 79.6%, the viability, T/C [32] was 94% and the viability, T/C [33] was 86.8%. The viability, T/C [34] was 94.7%, the viability, T/C [35] was 93.1% and the viability, T/C [36] was 5.61%.
With `CCCS(=O)(=O)Nc1ccc(F)c(C(=O)c2c[nH]c3ncc(-c4ccc(Cl)cc4)cc23)c1F` + CC(Nc1ncnc2nc[nH]c12)c1cc2cccc(Cl)c2c(=O)n1-c1ccccc1 the IC50 (second compound 0.0316 µM) was 4.97 µM, the IC50 (second compound 0.1 µM) was 5.13 µM and the IC50 (second compound 0.316 µM) was 5.49 µM. For the same compound, the IC50 (second compound 1 µM) was 4.61 µM, the IC50 (second compound 3.16 µM) was 4.58 µM and the IC50 (second compound 10 µM) was 4.4 µM. It also gave a viability, T/C [1] of 80.7%, a viability, T/C [2] of 77.9% and a viability, T/C [3] of 97.8%. The viability, T/C [4] was 98.2%, the viability, T/C [5] was 80% and the viability, T/C [6] was 3.53%. It also gave a viability, T/C [7] of 97.1%, a viability, T/C [8] of 100% and a viability, T/C [9] of 90.6%. For the same compound, the viability, T/C [10] was 97.6%, the viability, T/C [11] was 82% and the viability, T/C [12] was 5.89%. For the same compound, the viability, T/C [13] was 81.3%, the viability, T/C [14] was 103% and the viability, T/C [15] was 93.6%. The viability, T/C [16] was 94.6%, the viability, T/C [17] was 93.2% and the viability, T/C [18] was 3.19%. It also gave a viability, T/C [19] of 90.3%, a viability, T/C [20] of 99.7% and a viability, T/C [21] of 99.7%. The viability, T/C [22] was 96.5%, the viability, T/C [23] was 71.8% and the viability, T/C [24] was 5.59%. It also gave a viability, T/C [25] of 94.7%, a viability, T/C [26] of 99.2% and a viability, T/C [27] of 90.6%. For the same compound, the viability, T/C [28] was 85.7%, the viability, T/C [29] was 74.3% and the viability, T/C [30] was 2.26%. For the same compound, the viability, T/C [31] was 78.5%, the viability, T/C [32] was 92.2% and the viability, T/C [33] was 92.1%. The viability, T/C [34] was 74.8%, the viability, T/C [35] was 70.6% and the viability, T/C [36] was 3.63%.
For `CNC(=O)c1ccc(N2C(=S)N(c3ccc(C#N)c(C(F)(F)F)c3)C(=O)C2(C)C)cc1F` + CC(Nc1ncnc2nc[nH]c12)c1cc2cccc(Cl)c2c(=O)n1-c1ccccc1, the IC50 (second compound 0.0316 µM) was > 10 µM, the IC50 (second compound 0.1 µM) was > 10 µM and the IC50 (second compound 0.316 µM) was > 10 µM. The IC50 (second compound 1 µM) was > 10 µM, the IC50 (second compound 3.16 µM) was > 10 µM and the IC50 (second compound 10 µM) was > 10 µM. The viability, T/C [1] was 106%, the viability, T/C [2] was 92.8% and the viability, T/C [3] was 88.1%. For the same compound, the viability, T/C [4] was 94.5%, the viability, T/C [5] was 79.7% and the viability, T/C [6] was 63.6%. It also gave a viability, T/C [7] of 101%, a viability, T/C [8] of 81% and a viability, T/C [9] of 96.5%. For the same compound, the viability, T/C [10] was 76.3%, the viability, T/C [11] was 80.8% and the viability, T/C [12] was 83.9%. It also gave a viability, T/C [13] of 102%, a viability, T/C [14] of 90.1% and a viability, T/C [15] of 92.6%. It also gave a viability, T/C [16] of 80.5%, a viability, T/C [17] of 71.7% and a viability, T/C [18] of 52.6%. The viability, T/C [19] was 81.5%, the viability, T/C [20] was 95.7% and the viability, T/C [21] was 96.5%. The viability, T/C [22] was 77.4%, the viability, T/C [23] was 78.2% and the viability, T/C [24] was 68.3%. It also gave a viability, T/C [25] of 107%, a viability, T/C [26] of 76.6% and a viability, T/C [27] of 104%. The viability, T/C [28] was 87.6%, the viability, T/C [29] was 80.8% and the viability, T/C [30] was 68.4%. It also gave a viability, T/C [31] of 85.7%, a viability, T/C [32] of 97.3% and a viability, T/C [33] of 93.3%. The viability, T/C [34] was 95.6%, the viability, T/C [35] was 60.9% and the viability, T/C [36] was 58.3%.

From PubChem BioAssay AID1963984 (Molecular Pharmacology Branch, DTP, NCI, 2024)
